The source made the active and inactive calls. The calls are words filed in the database; no cut-off is given here.
How the values were obtained:
Tubulin (Homo sapiens) [1] = molecular target: T1, Tubulin (Homo sapiens) (UniProt P68371+Q9H4B7+P0DPH7+P68366+Q13509+Q71U36+P04350+Q3ZCM7+P07437+P68363+Q9BQE3+Q6PEY2+Q13885+Q9BVA1+Q9BUF5); assay: Inhibition of tubulin in human NCI-H460 cells assessed as reduction in spindles formation at 100 nM after 8 hrs by immunofluorescence technique; type: cell-based
Tubulin (Homo sapiens) [2] = molecular target: T1, Tubulin (Homo sapiens); assay: Inhibition of tubulin in human NCI-H460 cells assessed as depolymerization of microtubule cytoskeleton after 8 hrs by immunofluorescence technique; type: cell-based
COLO 205 = assay: Cytotoxicity against human COLO205 cells assessed as growth inhibition by MTT assay; type: functional, cell-based
NCI-H460 = assay: Cytotoxicity against human NCI-H460 cells assessed as growth inhibition by MTT assay; type: functional, cell-based
A-431 = assay: Cytotoxicity against human A431 cells assessed as growth inhibition after 72 hrs by CCK-8 assay; type: functional, cell-based; details: A-431, 72 h
HeLa = assay: Cytotoxicity against human HeLa cells assessed as growth inhibition after 72 hrs by CCK-8 assay; type: functional, cell-based
HepG2 = assay: Cytotoxicity against human HepG2 cells assessed as growth inhibition after 72 hrs by CCK-8 assay; type: functional, cell-based; details: HepG2, 72 h
[3] = Cytotoxicity against human MDA-MB-435S cells assessed as growth inhibition after 72 hrs by CCK-8 assay; type: functional, cell-based
K562 = assay: Cytotoxicity against human K562 cells assessed as growth inhibition after 72 hrs by CCK-8 assay; type: functional, cell-based; details: K562, 72 h

Compound	Activity (Tubulin (Homo sapiens) [1])	Activity (Tubulin (Homo sapiens) [2])	IC50 (COLO 205)	IC50 (NCI-H460)	IC50 (A-431)	IC50 (HeLa)	IC50 (HepG2)	IC50 [3]	IC50 (K562)
CNC(=O)Nc1nc2cc(Oc3cccc(C#N)c3)ccc2[nH]1	Active	Dose-dependent effect	–	–	–	–	–	–	–
O=C(Cc1ccccc1)Nc1nc2cc(Oc3ccccc3)ccc2[nH]1	–	–	11400 nM	> 10000 nM	–	–	–	–	–
CC(=O)O[C@H]1C(=O)[C@@]2(C)[C@H]([C@H](OC(=O)c3ccccc3)[C@]3(O)C[C@H](OC(=O)[C@H](O)[C@@H](NC(=O)c4ccccc4)c4ccccc4)C(C)=C1C3(C)C)[C@]1(OC(C)=O)CO[C@@H]1C[C@@H]2O [PACLITAXEL]	–	–	3 nM	10 nM	7 nM	410 nM	990 nM	9 nM	4 nM
COc1cc2c(c(OC)c1OC)-c1ccc(OC)c(=O)cc1[C@@H](NC(C)=O)CC2 [COLCHICINE]	–	–	3 nM	21 nM	8 nM	704 nM	1710 nM	7 nM	1 nM

— ChEMBL document CHEMBL3352382, “New benzimidazole-2-urea derivates as tubulin inhibitors” (Bioorg Med Chem Lett, 2014)
